Results: patent US20230203023A1, “SALT AND CRYSTAL FORMS OF GLP-1R AGONISTS AND USES THEREOF” (QILU REGOR THERAPEUTICS INC., priority 2020, published 2023)
Counter-ions that a name gives are not always drawn. Marks after values point to notes of the source that are not given here.

Legend:
[1] = Solution stability evaluation in SGF (pH 1.8) and pH 8.0 buffer at RT; type: physicochemical
Procedure: Weigh 100 mg of sodium chloride and 50 mg of Triton X-100 into a 50-mL volumetric flask. Add appropriate volume of purified water and sonicate until all solids are completely dissolved. Add about 68 μL of 12 M HCl and sufficient purified water closely to the target volume and adjust to pH 1.8. Dilute to volume with purified water, mix well and check the pH with a pH meter.
Add sufficient purified water closely to the target volume and adjust to pH 8.0. Dilute to volume with purified water, mix well and check the pH with a pH meter. […]
Solution stability was evaluated for 1:1 Compound II Citrate Salt (Form A) and 1:1 Compound II Tris Salt (Form B) in SGF (pH 1.8) and pH 8.0 buffer at RT. Clear solutions were prepared at two concentrations (0.01 mg/mL, 0.05 mg/mL) and then placed at RT for 6 hours, 1/5 days or 6 hours, 1/3/7 days. […] The HPLC purity and pH value were tested and the results were summarized from Table 7-3-1 to Table 7-3-4.

[2] = VH-XRPD, dehydration of the hydrate; type: physicochemical
Procedure: VH-XRPD and single crystal structure determination were performed for 1:1 Compound I Tris Salt (Form A) and it was identified as a monohydrate, which would dehydrate at the ≤30%RH condition.
VH-XRPD was performed for a 1:1 Compound II tris salt (Form B) sample for further identification. […] Combining the characterization results, it is believe that 1:1 Compound II tris salt (Form B) is a hydrate, which would dehydrate below ≤10% RH.

[3] = 6 hours, 0.01 mg/mL, pH 1.8 (SGF), RT
[4] = 6 hours, 0.01 mg/mL, pH 8.0 (50 mM phosphate), RT
[5] = 6 hours, 0.05 mg/mL, pH 1.8 (SGF), RT
[6] = 6 hours, 0.05 mg/mL, pH 8.0 (50 mM phosphate), RT
[7] = 1 day, 0.01 mg/mL, pH 1.8 (SGF), RT
[8] = 1 day, 0.01 mg/mL, pH 8.0 (50 mM phosphate), RT
[9] = 1 day, 0.05 mg/mL, pH 1.8 (SGF), RT
[10] = 1 day, 0.05 mg/mL, pH 8.0 (50 mM phosphate), RT
[11] = 3 days, 0.01 mg/mL, pH 1.8 (SGF), RT
[12] = 3 days, 0.01 mg/mL, pH 8.0 (50 mM phosphate), RT
[13] = 3 days, 0.05 mg/mL, pH 1.8 (SGF), RT
[14] = 3 days, 0.05 mg/mL, pH 8.0 (50 mM phosphate), RT
[15] = 7 days, 0.01 mg/mL, pH 1.8 (SGF), RT
[16] = 7 days, 0.01 mg/mL, pH 8.0 (50 mM phosphate), RT
[17] = 7 days, 0.05 mg/mL, pH 1.8 (SGF), RT
[18] = 7 days, 0.05 mg/mL, pH 8.0 (50 mM phosphate), RT
[19] = Initial, 0.01 mg/mL, pH 1.8 (SGF), RT
[20] = Initial, 0.01 mg/mL, pH 8.0 (50 mM phosphate), RT
[21] = Initial, 0.05 mg/mL, pH 1.8 (SGF), RT
[22] = Initial, 0.05 mg/mL, pH 8.0 (50 mM phosphate), RT
[23] = 0.01 mg/mL, pH 1.8 (SGF), Initial
[24] = 0.01 mg/mL, pH 1.8 (SGF), RT, 6 hours
[25] = 0.01 mg/mL, pH 8.0 (50 mM phosphate), Initial
[26] = 0.01 mg/mL, pH 8.0 (50 mM phosphate), RT, 6 hours
[27] = 0.05 mg/mL, pH 1.8 (SGF), Initial
[28] = 0.05 mg/mL, pH 1.8 (SGF), RT, 6 hours
[29] = 0.05 mg/mL, pH 8.0 (50 mM phosphate), Initial
[30] = 0.05 mg/mL, pH 8.0 (50 mM phosphate), RT, 6 hours
[31] = 5 days, 0.01 mg/mL, pH 1.8 (SGF), RT
[32] = 5 days, 0.01 mg/mL, pH 8.0 (50 mM phosphate), RT
[33] = 5 days, 0.05 mg/mL, pH 1.8 (SGF), RT
[34] = 5 days, 0.05 mg/mL, pH 8.0 (50 mM phosphate), RT

Question: With `N#Cc1ccc(COc2cccc(C3=CCN(Cc4nc5ccc(C(=O)O)cc5n4C[C@@H]4CCO4)CC3)n2)c(F)c1` [Tris salt Form B, (S)-2-((6-((4-cyano-2-fluorobenzyl)oxy)-3′,6′-dihydro-[2,4′-bipyridin]-1′(2′H)-yl)methyl)-1-(oxetan-2-ylmethyl)-1H-benzo[d]imidazole-6-carboxylic acid] as the compound, how does the “Purity (% area)” value [1, 3] read?
Answer: 94.92 % area

Question: What about the “Purity vs. Initial (%)” value [1, 3] of the same compound?
Answer: 99.7%

Question: What about the pH [1, 3] of the same compound?
Answer: 1.8

Question: And the “Purity (% area)” value [1, 4]?
Answer: 98.97 % area

Question: And the “Purity vs. Initial (%)” value [1, 4]?
Answer: 99.9%

Question: What about the pH [1, 4] of the same compound?
Answer: 8.0

Question: And the “Purity (% area)” value [1, 5]?
Answer: 97.53 % area

Question: What about the “Purity vs. Initial (%)” value [1, 5] of the same compound?
Answer: 99.3%

Question: And the pH [1, 5]?
Answer: 1.8

Question: What about the “Purity (% area)” value [1, 6] of the same compound?
Answer: 99.28 % area

Question: What about the “Purity vs. Initial (%)” value [1, 6] of the same compound?
Answer: 100.0%

Question: What about the pH [1, 6] of the same compound?
Answer: 8.0

Question: What about the “Purity (% area)” value [1, 7] of the same compound?
Answer: 94.11 % area

Question: What about the “Purity vs. Initial (%)” value [1, 7] of the same compound?
Answer: 98.8%

Question: And the pH [1, 7]?
Answer: 1.8

Question: What about the “Purity (% area)” value [1, 8] of the same compound?
Answer: 98.38 % area

Question: And the “Purity vs. Initial (%)” value [1, 8]?
Answer: 99.3%

Question: What about the pH [1, 8] of the same compound?
Answer: 8.0

Question: And the “Purity (% area)” value [1, 9]?
Answer: 96.40 % area

Question: And the “Purity vs. Initial (%)” value [1, 9]?
Answer: 98.1%

Question: And the pH [1, 9]?
Answer: 1.8

Question: And the “Purity (% area)” value [1, 10]?
Answer: 98.86 % area

Question: And the “Purity vs. Initial (%)” value [1, 10]?
Answer: 99.6%

Question: And the pH [1, 10]?
Answer: 8.0

Question: And the “Purity (% area)” value [1, 11]?
Answer: 91.81 % area

Question: And the “Purity vs. Initial (%)” value [1, 11]?
Answer: 96.4%

Question: And the pH [1, 11]?
Answer: 1.8

Question: What about the “Purity (% area)” value [1, 12] of the same compound?
Answer: 98.26 % area

Question: What about the “Purity vs. Initial (%)” value [1, 12] of the same compound?
Answer: 99.2%

Question: And the pH [1, 12]?
Answer: 8.0

Question: And the “Purity (% area)” value [1, 13]?
Answer: 93.38 % area

Question: And the “Purity vs. Initial (%)” value [1, 13]?
Answer: 95.0%

Question: What about the pH [1, 13] of the same compound?
Answer: 1.8

Question: What about the “Purity (% area)” value [1, 14] of the same compound?
Answer: 98.98 % area

Question: And the “Purity vs. Initial (%)” value [1, 14]?
Answer: 99.7%

Question: And the pH [1, 14]?
Answer: 8.0

Question: And the “Purity (% area)” value [1, 15]?
Answer: 87.14 % area

Question: And the “Purity vs. Initial (%)” value [1, 15]?
Answer: 91.5%

Question: What about the pH [1, 15] of the same compound?
Answer: 1.8

Question: What about the “Purity (% area)” value [1, 16] of the same compound?
Answer: 97.31 % area

Question: What about the “Purity vs. Initial (%)” value [1, 16] of the same compound?
Answer: 98.3%

Question: And the pH [1, 16]?
Answer: 8.0

Question: What about the “Purity (% area)” value [1, 17] of the same compound?
Answer: 87.15* % area

Question: What about the “Purity vs. Initial (%)” value [1, 17] of the same compound?
Answer: 88.7%

Question: And the pH [1, 17]?
Answer: 1.8

Question: What about the “Purity (% area)” value [1, 18] of the same compound?
Answer: 98.75 % area

Question: And the “Purity vs. Initial (%)” value [1, 18]?
Answer: 99.5%

Question: And the pH [1, 18]?
Answer: 8.0

Question: What about the “Purity (% area)” value [1, 19] of the same compound?
Answer: 95.25 % area

Question: And the pH [1, 19]?
Answer: 1.8

Question: What about the “Purity (% area)” value [1, 20] of the same compound?
Answer: 99.04 % area

Question: And the pH [1, 20]?
Answer: 8.0

Question: And the “Purity (% area)” value [1, 21]?
Answer: 98.26 % area

Question: What about the pH [1, 21] of the same compound?
Answer: 1.8

Question: And the “Purity (% area)” value [1, 22]?
Answer: 99.27 % area

Question: What about the pH [1, 22] of the same compound?
Answer: 8.0

Question: And the “Relative humidity at which the hydrate would dehydrate” value [2]?
Answer: ≤ 10 % RH

Question: What does the source list for `N#Cc1ccc(COc2cccc(C3=CCN(Cc4nc5ccc(C(=O)O)cc5n4C[C@@H]4CCO4)CC3)n2)c(F)c1` [Citrate salt Form A, (S)-2-((6-((4-cyano-2-fluorobenzyl)oxy)-3′,6′-dihydro-[2,4′-bipyridin]-1′(2′H)-yl)methyl)-1-(oxetan-2-ylmethyl)-1H-benzo[d]imidazole-6-carboxylic acid]?
Answer: Purity (% area) [1, 23]: 100.00 % area; pH [1, 23]: 1.8; Purity (% area) [1, 24]: 100.00 % area; Purity vs. Initial (%) [1, 24]: 100.0%; pH [1, 24]: 1.8; Purity (% area) [1, 25]: 98.67 % area; pH [1, 25]: 8.0; Purity (% area) [1, 26]: 97.89 % area; Purity vs. Initial (%) [1, 26]: 99.2%; pH [1, 26]: 8.0; Purity (% area) [1, 27]: 97.84 % area; pH [1, 27]: 1.8; Purity (% area) [1, 28]: 97.54 % area; Purity vs. Initial (%) [1, 28]: 99.7%; pH [1, 28]: 1.8; Purity (% area) [1, 29]: 98.22 % area; pH [1, 29]: 8.0; Purity (% area) [1, 30]: 98.03 % area; Purity vs. Initial (%) [1, 30]: 99.8%; pH [1, 30]: 8.0; Purity (% area) [1, 7]: 98.51 % area; Purity vs. Initial (%) [1, 7]: 98.5%; pH [1, 7]: 1.8; Purity (% area) [1, 8]: 97.36 % area; Purity vs. Initial (%) [1, 8]: 98.7%; pH [1, 8]: 8.0; Purity (% area) [1, 9]: 96.61 % area; Purity vs. Initial (%) [1, 9]: 98.7%; pH [1, 9]: 1.8; Purity (% area) [1, 10]: 97.95 % area; Purity vs. Initial (%) [1, 10]: 99.7%; pH [1, 10]: 8.0; Purity (% area) [1, 31]: 94.05 % area; Purity vs. Initial (%) [1, 31]: 94.1%; pH [1, 31]: 1.9; Purity (% area) [1, 32]: 97.14 % area; Purity vs. Initial (%) [1, 32]: 98.5%; pH [1, 32]: 7.9; Purity (% area) [1, 33]: 92.31 % area; Purity vs. Initial (%) [1, 33]: 96.1%; pH [1, 33]: 1.8; Purity (% area) [1, 34]: 97.75 % area; Purity vs. Initial (%) [1, 34]: 99.5%; pH [1, 34]: 8.0
